Laboratory results from article PMC8259857, “Anti-tubercular activity and molecular docking studies of indolizine derivatives targeting mycobacterial InhA enzyme” (Journal of Enzyme Inhibition and Medicinal Chemistry, 2021).
Converted amounts (≈) assume the structure as drawn.

System: MDR-MTB (rifampicin and isoniazid-resistant MTB strain)
Experiment: microbe, parasite or virus in culture
Type: cell-based, Mycobacterium tuberculosis
Conditions: for MIC: Mycobacterium tuberculosis, read-out: MIC MDR-MTB; for fold reduced MDR-MTB activity compared to H37Rv MTB strain: MIC MDR-MTB versus MIC H37Rv; for MIC MDR-MTB: isolates resistant to rifampicin (1 μg/mL) and isoniazid (0.2 μg/mL), NA: not active at the concentration range (0.2–64 μg/mL)

Structure (SMILES) | MIC [µg/mL] | fold reduced MDR-MTB activity compared to H37Rv MTB strain [fold] | MIC MDR-MTB
CO[C@H]1/C=C/O[C@@]2(C)Oc3c(C)c(O)c4c(O)c(c(/C=N/N5CCN(C)CC5)c(O)c4c3C2=O)NC(=O)/C(C)=C\C=C\[C@H](C)[C@H](O)[C@@H](C)[C@@H](O)[C@@H](C)[C@H](OC(C)=O)[C@@H]1C [Rifampicin, reference compound] | ≥ 1 | – | –
CCOC(=O)c1c(C)c(C(=O)c2ccc(F)cc2)n2ccccc12 [Compound 3a] | 32 (≈ 98.4 µM) | 8 | –
CCOC(=O)c1cc(C(=O)c2ccc(C)cc2)n2ccccc12 [Compound 2e] | – | – | completely abolished the activity
CCOC(=O)c1cc(C(=O)c2ccc(C#N)cc2)n2ccccc12 [Compound 2f] | – | – | completely abolished the activity
CCOC(=O)c1cc(C(=O)c2ccc([N+](=O)[O-])cc2)n2ccccc12 [Compound 2d] | 64 (≈ 189 µM) | 8 | –
NNC(=O)c1ccncc1 [Isoniazid, reference compound] | ≥ 0.2 | – | –
CCOC(=O)c1c(C(=O)OCC)c2ccccn2c1C(=O)c1ccc([N+](=O)[O-])cc1 [Compound 4c, Diethyl-3-(4-nitrobenzoyl)indolizine-1,2-dicarboxylate] | 64 (≈ 156 µM) | – | –
CCOC(=O)c1c(C(=O)OCC)c2ccccn2c1C(=O)c1ccc(F)cc1 [Compound 4a, Diethyl-3-(4-fluorobenzoyl)indolizine-1,2-dicarboxylate] | 16 (≈ 41.7 µM) | – | –
CCOC(=O)c1c(C)c(C(=O)c2ccc([N+](=O)[O-])cc2)n2ccccc12 [Compound 3d] | – | – | inactive
CCOC(=O)c1c(C)c(C(=O)c2ccc(Cl)cc2)n2ccccc12 [Compound 3b] | – | – | inactive
CCOC(=O)c1c(C(=O)OCC)c2ccccn2c1C(=O)c1ccc(Cl)cc1 [Compound 4b, Diethyl-3-(4-chlorobenzoyl)indolizine-1,2-dicarboxylate] | 16 (≈ 40 µM) | – | –
